“Also recorded” adds a separate entry of the source.
Columns and labels:
HS = test: Expression of HS (heparan sulfate staining) in Myc-CaP cells; type: cell-based, mice
From the text: (§1) FIG. 7A-FIG. 7F show inhibition of CREB or HS attenuates prostate cancer growth. […] 7A) and HS (FIG. 7B) in Myc-CaP cells, and the in vitro cell growth (FIG. 7C) and migration (FIG. 7D).
(§2) FIG. 22E and FIG. 22F show myc-Cap cells in vivo for KG-501 (FIG. 22E) and Surfen (FIG. 22F). FIG. 22G and FIG. 22H show Ext1-overexpressing myc-Cap cells in vivo for KG-501 (FIG. 22G) and Surfen (FIG. 22H).

Myc-CaP cells [1] = test: s.c. xenograft prostate cancer mouse model, Myc-CaP cells; type: in vivo, FVB/NJ mice; details: without EXT1-overexpression
From the text: as §1, §2

EXT1 mRNA = test: Expression of EXT1 mRNA in Myc-CaP cells; type: cell-based, mice
From the text: as §1, §2

[2] = test system: Myc-CaP cells with EXT1-overexpression; test: s.c. xenograft prostate cancer mouse model, EXT1-overexpressing Myc-CaP cells; type: in vivo, FVB/NJ mice
From the text: as §1, §2

Myc-CaP cells [3] = test: In vitro cell growth of Myc-CaP cells; type: cell-based, mice
From the text: as §1, §2

Myc-CaP cells [4] = test: Cell migration of Myc-CaP cells; type: cell-based, mice
From the text: as §1, §2

Myc-CaP cells [5] = test: Colony formation of EXT1-overexpressing vs EV MyC-CaP cells with FGFR inhibitor; type: cell-based, mice; details: 1, 5, 10 μm AZD4547 vs DMSO

| Compound | expression of HS (HS) | growth of Myc-CaP cells in s.c. xenograft prostate cancer mouse model (Myc-CaP cells [1]) | expression of EXT1 mRNA (EXT1 mRNA) | growth of EXT1-overexpressing Myc-CaP cells in s.c. xenograft prostate cancer mouse model [2] | in vitro cell growth (Myc-CaP cells [3]) | migration (Myc-CaP cells [4]) | growth of Myc-CaP cells in s.c. xenograft prostate cancer mouse model (Myc-CaP cells [1]; listed as surfen) | resistance of EXT1-overexpressing cells to FGFR inhibitor in colony formation (Myc-CaP cells [5]) |
| --- | --- | --- | --- | --- | --- | --- | --- | --- |
| O=C(Nc1ccc(Cl)cc1)c1cc2ccccc2cc1OP(=O)(O)O [KG-501, 2-naphthol-AS-E-phosphate] | does-dependently inhibited | efficiently inhibited; also recorded: attenuated prostate cancer growth in vivo | does-dependently inhibited | efficiently inhibited; also recorded: attenuated prostate cancer growth in vivo | does-dependently inhibited | does-dependently inhibited |  |  |
| Cc1cc(N)c2cc(NC(=O)Nc3ccc4nc(C)cc(N)c4c3)ccc2n1 [Surfen, bis-2-methyl-4-amino-quinolyl-6-carbamide] |  | efficiently inhibited; also recorded: attenuated prostate cancer growth in vivo |  | efficiently inhibited; also recorded: attenuated prostate cancer growth in vivo |  |  | blocked PCa growth |  |
| COc1cc(CCc2cc(NC(=O)c3ccc(N4C[C@@H](C)N[C@@H](C)C4)cc3)n[nH]2)cc(OC)c1 [AZD4547] |  |  |  | blocks EXT1-overexpression-enhanced prostate cancer growth in vivo |  |  |  | more resistant |
